Values joined by “and” are separate entries in the source; they are usually repeats but may differ in a detail not shown here. Equal entries are not always repeated. Inconclusive results and toxic doses are left out.
System: CD2F1 mice, L1210 leukemia ip, survival T/C
Experiment: NCI In Vivo Anticancer Drug Screen. Data for tumor model L1210 Leukemia (intraperitoneal) in CD2F1 (CDF1) mice
Settings: endpoint: mean survival time, higher = longer survival
Outline: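 Compound-dosed mice with transplantable tumor versus matched vehicle controls; endpoint ratio T/C reported.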

[1] = dose: 100.0 mg/kg/injection, schedule: Q01DX009 (ip), vehicle: saline with Tween-80
[2] = dose: 100.0 mg/kg/injection, schedule: Q04DX003 (ip), vehicle: saline with Tween-80
[3] = dose: 200.0 mg/kg/injection, schedule: Q01DX009 (ip), vehicle: saline with Tween-80
[4] = dose: 200.0 mg/kg/injection, schedule: Q04DX003 (ip), vehicle: saline with Tween-80
[5] = dose: 400.0 mg/kg/injection, schedule: Q01DX009 (ip), vehicle: saline with Tween-80
[6] = dose: 400.0 mg/kg/injection, schedule: Q04DX003 (ip), vehicle: saline with Tween-80
[7] = dose: 100.0 mg/kg/injection, schedule: Q01DX001 (ip), vehicle: saline
[8] = dose: 200.0 mg/kg/injection, schedule: Q01DX001 (ip), vehicle: saline
[9] = dose: 400.0 mg/kg/injection, schedule: Q01DX001 (ip), vehicle: saline
[10] = dose: 100.0 mg/kg/injection, schedule: Q01DX001 (ip), vehicle: saline with Tween-80
[11] = dose: 200.0 mg/kg/injection, schedule: Q01DX001 (ip), vehicle: saline with Tween-80
[12] = dose: 400.0 mg/kg/injection, schedule: Q01DX001 (ip), vehicle: saline with Tween-80
[13] = dose: 6.25 mg/kg/injection, schedule: Q04DX003 (ip), vehicle: saline with Tween-80
[14] = dose: 12.5 mg/kg/injection, schedule: Q04DX003 (ip), vehicle: saline with Tween-80
[15] = dose: 12.5 mg/kg/injection, schedule: Q01DX009 (ip), vehicle: saline with Tween-80
[16] = dose: 25.0 mg/kg/injection, schedule: Q01DX009 (ip), vehicle: saline with Tween-80
[17] = dose: 50.0 mg/kg/injection, schedule: Q01DX009 (ip), vehicle: saline with Tween-80
[18] = dose: 25.0 mg/kg/injection, schedule: Q04DX003 (ip), vehicle: saline with Tween-80

CC1CNC(=S)S1 (stereo not given)
T/C [1]: 94 % of control | T/C [2]: 97 % of control | T/C [3]: 109 % of control | T/C [4]: 94 % of control | T/C [5]: 105 % of control | T/C [6]: 101 % of control

Cc1[nH]c(=S)[nH]c(=O)c1CCS
T/C [7]: 104 % of control | T/C [8]: 101 % of control | T/C [9]: 98 % of control

CCN(CC)CCNc1cc2c3ccccc3ccc2c2ccccc12
T/C [10]: 88 % of control | T/C [11]: 95 % of control | T/C [12]: 100 % of control

CC(=O)c1cccc(N=C(N)N)c1
T/C (dose: 75.0 mg/kg/injection, schedule: Q01DX001 (ip), vehicle: saline with Tween-80): 98 % of control | T/C (dose: 150.0 mg/kg/injection, schedule: Q01DX001 (ip), vehicle: saline with Tween-80): 96 % of control | T/C (dose: 300.0 mg/kg/injection, schedule: Q01DX001 (ip), vehicle: saline with Tween-80): 97 % of control

Cc1ccc(S(=O)(=O)NC(=O)c2ccccc2)cc1
T/C [1]: 95 % of control | T/C [2]: 98 % of control | T/C [3]: 98 % of control | T/C [4]: 102 % of control | T/C [5]: 95 % of control | T/C [6]: 101 % of control

CCOc1ccc(-n2c(=O)c(N=Nc3ccccc3)c(O)n(-c3ccc(C)cc3)c2=S)cc1
T/C [10]: 97 % of control | T/C [11]: 89 % of control

S=C(Nc1ccccc1)Nc1ccccn1
T/C [10]: 97 % of control | T/C [11]: 105 % of control | T/C [12]: 109 % of control

COc1ccccc1C1(O)c2ccccc2Sc2cccc(OC)c21 (stereo not given)
T/C [1]: 86 % of control | T/C [3]: 89 % of control | T/C [5]: 94 % of control

Nc1nc2c(ncn2-c2cccc(NC(=O)c3cc(S(=O)(=O)F)ccc3Cl)c2)c(=O)[nH]1
T/C [10]: 88 % of control | T/C [11]: 94 % of control | T/C [12]: 94 % of control

CC([NH-])CC(C)[NH-].[I][Pt+2][I] (stereo not given)
T/C [13]: 113 % of control | T/C [14]: 121 % of control

COc1ccc(NC(=O)Nc2ccc(C)c([N+](=O)[O-])c2)c(OC)c1
T/C [15]: 97 % of control | T/C [16]: 103 % of control | T/C [17]: 88 % of control and 94 % of control

NC(CO)C(O)c1ccc(N=Nc2ccc(O)cc2)cc1 (stereo not given)
T/C [16]: 100 % of control | T/C [17]: 104 % of control | T/C [1]: 94 % of control

CC(=O)C(C)OS(C)(=O)=O (stereo not given)
T/C [18]: 108 % of control | T/C (dose: 50.0 mg/kg/injection, schedule: Q04DX003 (ip), vehicle: saline with Tween-80): 108 % of control | T/C [2]: 109 % of control | T/C [4]: 120 % of control

NC(=O)c1cc([N+](=O)[O-])ccc1NN=NCCCl
T/C (dose: 25.0 mg/kg/injection, schedule: Q01DX001 (ip), vehicle: Klucel (hydroxypropylcellulose) (HPC)): 112 % of control | T/C (dose: 50.0 mg/kg/injection, schedule: Q01DX001 (ip), vehicle: Klucel (hydroxypropylcellulose) (HPC)): 150 % of control | T/C (dose: 100.0 mg/kg/injection, schedule: Q01DX001 (ip), vehicle: Klucel (hydroxypropylcellulose) (HPC)): 183 % of control | T/C (dose: 200.0 mg/kg/injection, schedule: Q01DX001 (ip), vehicle: Klucel (hydroxypropylcellulose) (HPC)): 231 % of control

CN1CC2(c3ccccc3)CN(C)CC(c3ccccc3)(C1)C2=O
T/C (dose: 6.25 mg/kg/injection, schedule: Q01DX009 (ip), vehicle: saline with Tween-80): 98 % of control | T/C [13]: 98 % of control | T/C [15]: 95 % of control | T/C [14]: 98 % of control | T/C [16]: 103 % of control | T/C [18]: 92 % of control

CCCC(CC)OC(=O)Nc1cccc2ccccc12 (stereo not given)
T/C [7]: 100 % of control | T/C [8]: 102 % of control | T/C [9]: 100 % of control

Clc1ccc2ccc(Cl)cc2c1
T/C [1]: 94 % of control | T/C [3]: 96 % of control | T/C [5]: 105 % of control

CCOC(=O)c1cnc2c(ccc3ncccc32)c1NCCCN(CC)CC
T/C (dose: 12.5 mg/kg/injection, schedule: Q01DX009 (ip), vehicle: Klucel (hydroxypropylcellulose) (HPC)): 93 % of control | T/C (dose: 25.0 mg/kg/injection, schedule: Q01DX009 (ip), vehicle: Klucel (hydroxypropylcellulose) (HPC)): 97 % of control | T/C (dose: 50.0 mg/kg/injection, schedule: Q01DX009 (ip), vehicle: Klucel (hydroxypropylcellulose) (HPC)): 97 % of control

COc1ccc2c(c1O)C1=CC(=O)CCC13CCN(C)C3C2 (stereo not given)
T/C (dose: 100.0 mg/kg/injection, schedule: Q01DX009 (ip), vehicle: saline): 103 % of control | T/C (dose: 200.0 mg/kg/injection, schedule: Q01DX009 (ip), vehicle: saline): 96 % of control

— PubChem BioAssay AID256 (DTP/NCI, 2004)
